≈ marks a conversion by molar mass, not a printed value. Calls of active or inactive are those of the source. No cut-off for these calls is given here.
Tests used:
Homo sapiens [1] = species on record: Homo sapiens; test: Spermicidal activity against human spermatozoa at 1.0% w/v; type: functional
Homo sapiens [2] = species on record: Homo sapiens; test: Spermicidal activity against human spermatozoa; type: functional
Candida albicans [3] = test: Antifungal activity against Candida albicans MTCC 183 after 48 hrs by broth micro dilution technique; type: functional, organism-based; details: MTCC 183, 48 h
Candida albicans [4] = test: Antifungal activity against Candida albicans ATCC 10231 after 48 hrs by broth micro dilution technique; type: functional, organism-based; details: ATCC 10231, 48 h
Candida albicans [5] = test: Antifungal activity against Candida albicans ATCC 66027 after 48 hrs by broth micro dilution technique; type: functional, organism-based; details: ATCC 66027, 48 h
Candida albicans [6] = test: Antifungal activity against Candida albicans after 48 hrs by broth micro dilution technique; type: functional, organism-based
Candida albicans [7] = test: Antifungal activity against Candida albicans MTCC 1346 after 48 hrs by broth micro dilution technique; type: functional, organism-based; details: MTCC 1346, 48 h
Candida albicans [8] = test: Antifungal activity against Candida albicans ATCC 60193 after 48 hrs by broth micro dilution technique; type: functional, organism-based; details: ATCC 60193, 48 h
Pichia kudriavzevii = test: Antifungal activity against Candida krusei ATCC 6258 after 48 hrs by broth micro dilution technique; type: functional, organism-based; details: ATCC 6258, 48 h
Candida albicans [9] = test: Antifungal activity against Candida albicans ATCC 10453 after 48 hrs by broth micro dilution technique; type: functional, organism-based; details: ATCC 10453, 48 h
Candida parapsilosis = test: Antifungal activity against Candida parapsilosis ATCC 22019 after 48 hrs by broth micro dilution technique; type: functional, organism-based; details: Lodderomyces parapsilosis, ATCC 22019, 48 h

Structure (SMILES)	Activity (Homo sapiens [1])	MEC (Homo sapiens [2]) [%w/v]	IC50 (Candida albicans [3]) [µg/mL]	MIC (Candida albicans [3]) [µg/mL]	IC50 (Candida albicans [4]) [µg/mL]	MIC (Candida albicans [4]) [µg/mL]	IC50 (Candida albicans [5]) [µg/mL]	MIC (Candida albicans [5]) [µg/mL]	IC50 (Candida albicans [6]) [µg/mL]	MIC (Candida albicans [6]) [µg/mL]	IC50 (Candida albicans [7]) [µg/mL]	MIC (Candida albicans [7]) [µg/mL]	IC50 (Candida albicans [8]) [µg/mL]	MIC (Candida albicans [8]) [µg/mL]	IC50 (Pichia kudriavzevii) [µg/mL]	MIC (Pichia kudriavzevii) [µg/mL]	IC50 (Candida albicans [9]) [µg/mL]	MIC (Candida albicans [9]) [µg/mL]	IC50 (Candida parapsilosis) [µg/mL]	MIC (Candida parapsilosis) [µg/mL]
O=C(SCC(CN1CCOCC1)SSC(CSC(=O)N1CCOCC1)CN1CCOCC1)N1CCOCC1 (racemic)	inactive																			
CN1CCN(CC(CSC(=O)N2CCCC2)SSC(CSC(=O)N2CCCC2)CN2CCN(C)CC2)CC1 (racemic)		1																		
OC(Cn1cncn1)(Cn1cncn1)c1ccc(F)cc1F [FLUCONAZOLE]		0.1	0.26 (≈ 0.849 µM)	0.5 (≈ 1.63 µM)	0.35 (≈ 1.14 µM)	1 (≈ 3.27 µM)	0.18 (≈ 0.588 µM)	0.25 (≈ 0.816 µM)	0.13 (≈ 0.424 µM)	0.5 (≈ 1.63 µM)	0.58 (≈ 1.89 µM)	2 (≈ 6.53 µM)	0.1 (≈ 0.327 µM)	0.25 (≈ 0.816 µM)	1.38 (≈ 4.51 µM)	4 (≈ 13.1 µM)	0.63 (≈ 2.06 µM)	1 (≈ 3.27 µM)	0.21 (≈ 0.686 µM)	1 (≈ 3.27 µM)
CCN(C)C(=O)SCC(CN1CCN(C)CC1)SSC(CSC(=O)N(C)CC)CN1CCN(C)CC1 (racemic)	inactive																			
O=C(SCC(CN1CCCCC1)SSC(CSC(=O)N1CCCCC1)CN1CCCCC1)N1CCCCC1 (racemic)		0.05	> 50	> 50	> 50	> 50	> 50	> 50	> 50	> 50	> 50	> 50	> 50	> 50	> 50	> 50	> 50	> 50	> 50	> 50
O=C(SCC(CN1CCCC1)SSC(CSC(=O)N1CCCC1)CN1CCCC1)N1CCCC1 (racemic)		0.002	29 (≈ 53 µM)	50 (≈ 91.4 µM)	> 50	> 50	42 (≈ 76.8 µM)	> 50	43 (≈ 78.6 µM)	> 50	> 50	> 50	> 50	> 50	33 (≈ 60.3 µM)	50 (≈ 91.4 µM)	> 50	> 50	31 (≈ 56.7 µM)	50 (≈ 91.4 µM)
O=C(SCC(CN1CCCC1)SSC(CSC(=O)N1CCOCC1)CN1CCCC1)N1CCOCC1 (racemic)		0.1																		
O=C(SCC(CN1CCOCC1)SSC(CSC(=O)N1CCCC1)CN1CCOCC1)N1CCCC1 (racemic)	inactive																			
CN1CCN(CC(CSC(=O)N2CCCCC2)SSC(CSC(=O)N2CCCCC2)CN2CCN(C)CC2)CC1 (racemic)		0.05	> 50	50 (≈ 79 µM)	> 50	50 (≈ 79 µM)	40 (≈ 63.2 µM)	> 50	47 (≈ 74.2 µM)	50 (≈ 79 µM)	> 50	50 (≈ 79 µM)	43 (≈ 67.9 µM)	> 50	35 (≈ 55.3 µM)	50 (≈ 79 µM)	46 (≈ 72.7 µM)	> 50	40 (≈ 63.2 µM)	50 (≈ 79 µM)
O=C(SCC(CN1CCCCC1)SSC(CSC(=O)N1CCCC1)CN1CCCCC1)N1CCCC1 (racemic)		0.05	42 (≈ 73.1 µM)	> 50	> 50	> 50	> 50	> 50	> 50	> 50	> 50	> 50	> 50	> 50	49 (≈ 85.2 µM)	50 (≈ 87 µM)	> 50	> 50	48 (≈ 83.5 µM)	50 (≈ 87 µM)
CCN(CC)C(=O)SCC(CN1CCCCC1)SSC(CSC(=O)N(CC)CC)CN1CCCCC1 (racemic; 29)	inactive																			
O=C(SCC(CN1C=CC=CC=C1)SSC(CSC(=O)N1CCCC1)CN1C=CC=CC=C1)N1CCCC1 (racemic)		0.05	26 (≈ 44 µM)	50 (≈ 84.6 µM)	> 50	> 50	> 50	> 50	50 (≈ 84.6 µM)	> 50	50 (≈ 84.6 µM)	50 (≈ 84.6 µM)	42 (≈ 71.1 µM)	50 (≈ 84.6 µM)	32 (≈ 54.2 µM)	50 (≈ 84.6 µM)	> 50	> 50	42 (≈ 71.1 µM)	50 (≈ 84.6 µM)
O=C(SCC(CN1C=CC=CC=C1)SSC(CSC(=O)N1CCOCC1)CN1C=CC=CC=C1)N1CCOCC1 (racemic)		0.05	25 (≈ 40.1 µM)	50 (≈ 80.3 µM)	> 50	> 50	> 50	> 50	> 50	> 50	35 (≈ 56.2 µM)	50 (≈ 80.3 µM)	42 (≈ 67.4 µM)	50 (≈ 80.3 µM)	32 (≈ 51.4 µM)	50 (≈ 80.3 µM)	> 50	> 50	39 (≈ 62.6 µM)	50 (≈ 80.3 µM)
CCCCCCCCCc1ccc(OCCOCCOCCOCCOCCOCCOCCOCCOCCO)cc1 [NONOXYNOL 9]		0.05	41 (≈ 66.5 µM)	> 50	> 50	> 50	> 50	> 50	46 (≈ 74.6 µM)	> 50	> 50	> 50	> 50	> 50	48 (≈ 77.8 µM)	50 (≈ 81.1 µM)	> 50	> 50	47 (≈ 76.2 µM)	50 (≈ 81.1 µM)
O=C(SCC(CN1CCCC1)SSC(CSC(=O)N1CCCCC1)CN1CCCC1)N1CCCCC1 (racemic)		0.002	32 (≈ 55.7 µM)	50 (≈ 87 µM)	48 (≈ 83.5 µM)	50 (≈ 87 µM)	43 (≈ 74.8 µM)	> 50	47 (≈ 81.7 µM)	> 50	48 (≈ 83.5 µM)	50 (≈ 87 µM)	41 (≈ 71.3 µM)	> 50	30 (≈ 52.2 µM)	50 (≈ 87 µM)	> 50	> 50	48 (≈ 83.5 µM)	50 (≈ 87 µM)
CCN(CC)C(=O)SCC(CN1CCCCC1)SSC(CSC(=O)N(CC)CC)CN1CCCCC1 (racemic; 26)	inactive																			
O=C(SCC(CN1CCOCC1)SSC(CSC(=O)N1CCCCC1)CN1CCOCC1)N1CCCCC1 (racemic)		0.1																		
CCN(CC)C(=O)SCC(CN1CCOCC1)SSC(CSC(=O)N(CC)CC)CN1CCOCC1 (configuration not stated)	inactive																			
CCN(C)C(=O)SCC(CN1CCCCC1)SSC(CSC(=O)N(C)CC)CN1CCCCC1 (racemic)	inactive																			
O=C(SCC(CN1CCCCC1)SSC(CSC(=O)N1CCOCC1)CN1CCCCC1)N1CCOCC1 (racemic)		0.5																		

From ChEMBL document CHEMBL1137452, “Synthesis of disulfide esters of dialkylaminocarbothioic acid as potent, non-detergent spermicidal agents” (Bioorg Med Chem, 2007)
